US12600709B2, “Nonpeptide somatostatin type 5 receptor agonists and uses thereof” (Crinetics Pharmaceuticals, Inc., priority 2019, dated 2026)
Like-named read-outs stand apart in the source and are kept apart here.

Key:
[1] = target: T1, human somatostatin receptor subtype 5 (Homo sapiens, UniProt P35346); experiment: cAMP assay for SST5R (inhibition of cAMP in CHO-K1 cells); type: cell-based; settings: for EC50: inhibition of cAMP via human SST5 receptor, read-out: SST5 potency
T1 construct: expressed in transfected cells
T1 sequence (P35346 whole entry): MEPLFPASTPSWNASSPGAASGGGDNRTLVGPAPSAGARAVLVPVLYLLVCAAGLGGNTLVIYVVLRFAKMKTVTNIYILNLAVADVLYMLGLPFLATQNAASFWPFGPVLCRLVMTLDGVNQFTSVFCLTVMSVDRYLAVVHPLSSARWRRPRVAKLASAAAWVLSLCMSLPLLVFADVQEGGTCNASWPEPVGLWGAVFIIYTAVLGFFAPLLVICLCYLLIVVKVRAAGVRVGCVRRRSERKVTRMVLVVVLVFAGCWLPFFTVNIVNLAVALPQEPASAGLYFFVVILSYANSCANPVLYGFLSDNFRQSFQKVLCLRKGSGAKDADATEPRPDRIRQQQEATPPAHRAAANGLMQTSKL
In short: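 CHO-K1 cells stably expressing human SSTR5 were treated 20 min at 37 °C with compounds plus 1.6 μM NKH477 in HBSS, 0.5 mM HEPES pH 7.4, 0.1% BSA, 0.2 mM IBMX. Lysate cAMP measured by HTRF against a standard curve; EC50 from cAMP-versus-concentration plots.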

[2] = target: T2, human somatostatin receptor subtype 2 (Homo sapiens, UniProt P30874); experiment: cAMP assay for SST2R (inhibition of cAMP in CHO-K1 cells); type: cell-based; settings: Table B; inhibition of cAMP via human SST2 receptor; read-out: SST2 potency
T2 construct: expressed in transfected cells
T2 sequence (P30874 whole entry): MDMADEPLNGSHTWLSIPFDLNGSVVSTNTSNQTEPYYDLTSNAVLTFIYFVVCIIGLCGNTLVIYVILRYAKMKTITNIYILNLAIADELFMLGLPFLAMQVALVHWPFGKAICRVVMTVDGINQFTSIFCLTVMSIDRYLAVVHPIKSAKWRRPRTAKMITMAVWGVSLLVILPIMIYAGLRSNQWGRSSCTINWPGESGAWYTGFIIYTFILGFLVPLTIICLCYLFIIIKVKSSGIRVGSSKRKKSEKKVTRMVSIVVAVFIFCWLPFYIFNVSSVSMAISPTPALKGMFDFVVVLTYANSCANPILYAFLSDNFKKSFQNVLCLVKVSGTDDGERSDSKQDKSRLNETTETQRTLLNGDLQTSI
In short: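 Agonism read as decrease in NKH477 (1.6 μM)-stimulated cAMP: compounds applied 20 min, 37° C, with 0.2 mM IBMX, to CHO-K1 stably expressing human SSTR2. cAMP quantified in lysates by time-resolved fluorescence (HTRF kit, 1-24 h RT), standard-curve regression, then EC50.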

[3] = Table B, class symbols, SST5 receptor over SST2 receptor

COc1ncc(C(=O)N[C@@H](C)C(F)(F)F)c(N2CC[C@](C)(N)C2)c1-c1cc(F)cc(OC(F)F)c1 [1-188, 4-[(3S)-3-amino-3-methylpyrrolidin-1-yl]-5-[3-(difluoromethoxy)-5-fluorophenyl]-6-methoxy-N-[(2S)-1,1,1-trifluoropropan-2-yl]pyridine-3-carboxamide]
EC50 ([1]; Table A): < 10 nM | Fold selectivity for SST5 vs SST2 [1, 3]: +++ (+++=>500) | EC50 ([1]; Table B): < 10 nM | EC50 [2]: 100 to 1000 nM

CC(C)NC(=O)c1cnc(C#N)c(-c2cc(F)cc(F)c2)c1N1CC[C@](C)(N)C1 [1-91, 4-[(3S)-3-amino-3-methylpyrrolidin-1-yl]-6-cyano-5-(3,5-difluorophenyl)-N-(propan-2-yl)pyridine-3-carboxamide]
EC50 ([1]; Table A): < 10 nM | Fold selectivity for SST5 vs SST2 [1, 3]: +++ (+++=>500) | EC50 ([1]; Table B): < 10 nM | EC50 [2]: 100 to 1000 nM

C[C@H](NC(=O)c1cnc(OCc2ccccc2)c(-c2cc(F)cc(F)c2)c1N1CC[C@](C)(N)C1)C1CC1 [1-267, 4-[(3S)-3-amino-3-methylpyrrolidin-1-yl]-6-(benzyloxy)-N-[(1S)-1-cyclopropylethyl]-5-(3,5-difluorophenyl)pyridine-3-carboxamide]
EC50 ([1]; Table A): < 10 nM | Fold selectivity for SST5 vs SST2 [1, 3]: +++ (+++=>500) | EC50 ([1]; Table B): < 10 nM | EC50 [2]: 100 to 1000 nM

Cc1ncc(C(=O)N[C@@H](C)C(F)(F)F)c(N2CC[C@H](N)C2)c1-c1cc(F)cc(OC(F)F)c1 [1-231, 4-[(3S)-3-aminopyrrolidin-1-yl]-5-[3-(difluoromethoxy)-5-fluorophenyl]-6-methyl-N-[(2S)-1,1,1-trifluoropropan-2-yl]pyridine-3-carboxamide]
EC50 ([1]; Table A): < 10 nM | Fold selectivity for SST5 vs SST2 [1, 3]: +++ (+++=>500) | EC50 ([1]; Table B): < 10 nM | EC50 [2]: 100 to 1000 nM

C[C@H](NC(=O)c1cnc(C(F)(F)F)c(-c2cc(F)cc(Cl)c2)c1N1CC[C@](C)(N)C1)C1CC1 [1-195, 4-[(3S)-3-amino-3-methylpyrrolidin-1-yl]-5-(3-chloro-5-fluorophenyl)-N-[(1S)-1-cyclopropylethyl]-6-(trifluoromethyl)pyridine-3-carboxamide]
EC50 ([1]; Table A): < 10 nM | Fold selectivity for SST5 vs SST2 [1, 3]: ++ (++=100 to 499) | EC50 ([1]; Table B): < 10 nM | EC50 [2]: 10 to 100 nM

Cc1cc(C)cc(-c2cncc(NC(=O)c3ccc(F)c(Cl)c3)c2N2CCC(CN)C2)c1 (stereo not drawn) [N-(4-(3-(aminomethyl)pyrrolidin-1-yl)-5-(3,5-dimethylphenyl)pyridin-3-yl)-3-chloro-4-fluorobenzamide, reference compound]
EC50 ([1]; Table B): > 1000 nM | Fold selectivity for SST5 vs SST2 ([1]; Table B, numeric values for comparison compounds): 0.0055 | EC50 [2]: < 10 nM

C[C@]1(N)CCN(c2c(C(=O)NC3CCCC3)cnc(C#N)c2-c2cc(F)cc(F)c2)C1 [1-78, 4-[(3S)-3-amino-3-methylpyrrolidin-1-yl]-6-cyano-N-cyclopentyl-5-(3,5-difluorophenyl)pyridine-3-carboxamide]
EC50 ([1]; Table A): < 10 nM | Fold selectivity for SST5 vs SST2 [1, 3]: +++ (+++=>500) | EC50 ([1]; Table B): < 10 nM | EC50 [2]: 10 to 100 nM

C[C@]1(N)CCN(c2c(C(=O)NC3CCC(F)(F)CC3)cnc(C#N)c2-c2cc(F)cc(F)c2)C1 [1-48, 4-[(3S)-3-amino-3-methylpyrrolidin-1-yl]-6-cyano-N-(4,4-difluorocyclohexyl)-5-(3,5-difluorophenyl)pyridine-3-carboxamide]
EC50 ([1]; Table A): < 10 nM | Fold selectivity for SST5 vs SST2 [1, 3]: +++ (+++=>500) | EC50 ([1]; Table B): < 10 nM | EC50 [2]: 100 to 1000 nM

Cc1ncc(C(=O)N[C@@H](C)C2CC2)c(N2CC[C@](C)(N)C2)c1-c1cncc(Cl)c1 [1-158, 4-[(3S)-3-amino-3-methylpyrrolidin-1-yl]-5′-chloro-N-[(1S)-1-cyclopropylethyl]-2-methyl-[3,3′-bipyridine]-5-carboxamide]
EC50 ([1]; Table A): < 10 nM | Fold selectivity for SST5 vs SST2 [1, 3]: +++ (+++=>500) | EC50 ([1]; Table B): < 10 nM | EC50 [2]: > 1000 nM

Cc1ncc(C(=O)N[C@@H](C)C(F)(F)F)c(N2CC[C@H](N)C2)c1-c1cc(F)cc(Cl)c1 [1-276, 4-[(3S)-3-aminopyrrolidin-1-yl]-5-(3-chloro-5-fluorophenyl)-6-methyl-N-[(2S)-1,1,1-trifluoropropan-2-yl]pyridine-3-carboxamide]
EC50 ([1]; Table A): < 10 nM | Fold selectivity for SST5 vs SST2 [1, 3]: ++ (++=100 to 499) | EC50 ([1]; Table B): < 10 nM | EC50 [2]: 100 to 1000 nM

Cc1ccc(F)c2[nH]c(-c3cncc(C(=O)N[C@@H](C)C(F)(F)F)c3N3CC[C@](C)(N)C3)nc12 [2-30, 4-[(3S)-3-amino-3-methylpyrrolidin-1-yl]-5-(7-fluoro-4-methyl-1H-1,3-benzodiazol-2-yl)-N-[(2S)-1,1,1-trifluoropropan-2-yl]pyridine-3-carboxamide]
EC50 ([1]; Table A): < 10 nM | Fold selectivity for SST5 vs SST2 [1, 3]: + (+=10 to 99) | EC50 ([1]; Table B): < 10 nM | EC50 [2]: 10 to 100 nM

CC1(NC(=O)c2cncc(-c3cc(F)cc(F)c3)c2N2CC[C@](C)(N)C2)CCC1 [1-34, 4-[(3S)-3-amino-3-methylpyrrolidin-1-yl]-5-(3,5-difluorophenyl)-N-(1-methylcyclobutyl)pyridine-3-carboxamide]
EC50 ([1]; Table A): < 10 nM | Fold selectivity for SST5 vs SST2 [1, 3]: ++ (++=100 to 499) | EC50 ([1]; Table B): < 10 nM | EC50 [2]: 100 to 1000 nM

CCC(C)CNC(=O)c1cncc(-c2cc(F)cc(F)c2)c1N1CC[C@](C)(N)C1 (stereo partly drawn) [1-57, 4-[(3S)-3-amino-3-methylpyrrolidin-1-yl]-5-(3,5-difluorophenyl)-N-(2-methylbutyl)pyridine-3-carboxamide]
EC50 ([1]; Table A): < 10 nM | Fold selectivity for SST5 vs SST2 [1, 3]: ++ (++=100 to 499) | EC50 ([1]; Table B): < 10 nM | EC50 [2]: 100 to 1000 nM

C[C@]1(N)CCN(c2c(C(=O)NC3CCCC3)cnc(C#N)c2-c2ccnc(C(F)(F)F)c2)C1 [1-248, 4-[(3S)-3-amino-3-methylpyrrolidin-1-yl]-2-cyano-N-cyclopentyl-2′-(trifluoromethyl)-[3,4′-bipyridine]-5-carboxamide]
EC50 ([1]; Table A): < 10 nM | Fold selectivity for SST5 vs SST2 [1, 3]: +++ (+++=>500) | EC50 ([1]; Table B): < 10 nM | EC50 [2]: > 1000 nM

COc1cc(-c2c(C#N)ncc(C(=O)NC3CCCC3)c2N2CC[C@](C)(N)C2)ccn1 [1-254, 4-[(3S)-3-amino-3-methylpyrrolidin-1-yl]-2-cyano-N-cyclopentyl-2′-methoxy-[3,4′-bipyridine]-5-carboxamide]
EC50 ([1]; Table A): < 10 nM | Fold selectivity for SST5 vs SST2 [1, 3]: +++ (+++=>500) | EC50 ([1]; Table B): < 10 nM | EC50 [2]: > 1000 nM

C[C@H](NC(=O)c1cncc(-c2cc(F)cc(F)c2)c1N1CC[C@](C)(N)C1)C1CC1 [1-41, 4-[(3S)-3-amino-3-methylpyrrolidin-1-yl]-N-[(1S)-1-cyclopropylethyl]-5-(3,5-difluorophenyl)pyridine-3-carboxamide]
EC50 ([1]; Table A): < 10 nM | Fold selectivity for SST5 vs SST2 [1, 3]: ++ (++=100 to 499) | EC50 ([1]; Table B): < 10 nM | EC50 [2]: 10 to 100 nM

COc1ncc(C(=O)NC23CC(C2)C3)c(N2CC[C@](C)(N)C2)c1-c1cc(F)cc(F)c1 [1-130, 4-[(3S)-3-amino-3-methylpyrrolidin-1-yl]-N-{bicyclo[1.1.1]pentan-1-yl}-5-(3,5-difluorophenyl)-6-methoxypyridine-3-carboxamide]
EC50 ([1]; Table A): < 10 nM | Fold selectivity for SST5 vs SST2 [1, 3]: +++ (+++=>500) | EC50 ([1]; Table B): < 10 nM | EC50 [2]: 100 to 1000 nM

CCC(CC)NC(=O)c1cnc(C#N)c(-c2ccnc(C(F)(F)F)c2)c1N1CC[C@](C)(N)C1 [1-249, 4-[(3S)-3-amino-3-methylpyrrolidin-1-yl]-2-cyano-N-(pentan-3-yl)-2′-(trifluoromethyl)-[3,4′-bipyridine]-5-carboxamide]
EC50 ([1]; Table A): < 10 nM | Fold selectivity for SST5 vs SST2 [1, 3]: +++ (+++=>500) | EC50 ([1]; Table B): < 10 nM | EC50 [2]: 100 to 1000 nM

C[C@]1(N)CCN(c2c(C(=O)NC3CCCCC3)cnc(C(F)(F)F)c2-c2cc(F)cc(F)c2)C1 [1-210, 4-[(3S)-3-amino-3-methylpyrrolidin-1-yl]-N-cyclohexyl-5-(3,5-difluorophenyl)-6-(trifluoromethyl)pyridine-3-carboxamide]
EC50 ([1]; Table A): < 10 nM | Fold selectivity for SST5 vs SST2 [1, 3]: +++ (+++=>500) | EC50 ([1]; Table B): < 10 nM | EC50 [2]: 10 to 100 nM

C[C@H](NC(=O)c1cnc(OCCCC(=O)O)c(-c2cc(F)cc(F)c2)c1N1CC[C@](C)(N)C1)C1CC1 [1-265, 4-({4-[(3S)-3-amino-3-methylpyrrolidin-1-yl]-5-{[(1S)-1-cyclopropylethyl]carbamoyl}-3-(3,5-difluorophenyl)pyridin-2-yl}oxy)butanoic acid]
EC50 ([1]; Table A): < 10 nM | Fold selectivity for SST5 vs SST2 [1, 3]: +++ (+++=>500) | EC50 ([1]; Table B): < 10 nM | EC50 [2]: > 1000 nM

C[C@H](NC(=O)c1cnc(C#N)c(-c2cccc(OC(F)F)c2)c1N1CC[C@](C)(N)C1)C(F)(F)F [1-168, 4-[(3S)-3-amino-3-methylpyrrolidin-1-yl]-6-cyano-5-[3-(difluoromethoxy)phenyl]-N-[(2S)-1,1,1-trifluoropropan-2-yl]pyridine-3-carboxamide]
EC50 ([1]; Table A): < 10 nM | Fold selectivity for SST5 vs SST2 [1, 3]: +++ (+++=>500) | EC50 ([1]; Table B): < 10 nM | EC50 [2]: 100 to 1000 nM

C[C@H](NC(=O)c1cnc(C#N)c(-c2cc(F)cc(F)c2)c1N1CC[C@](C)(N)C1)c1ccccn1 [1-103, 4-[(3S)-3-amino-3-methylpyrrolidin-1-yl]-6-cyano-5-(3,5-difluorophenyl)-N-[(1S)-1-(pyridin-2-yl)ethyl]pyridine-3-carboxamide]
EC50 ([1]; Table A): < 10 nM | Fold selectivity for SST5 vs SST2 [1, 3]: +++ (+++=>500) | EC50 ([1]; Table B): < 10 nM | EC50 [2]: > 1000 nM
